Test results taken from ChEMBL document CHEMBL1201862, “PubChem BioAssay data set” (2004).
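How tested: cells in 96-well plates exposed to compound for 48 hours at five concentrations. At the GI50, growth is halved.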 Calls of active or inactive are those of the source. No stated cut-off is given here; in the data, active = GI50 up to about 1.1 µM and inactive = higher.

How the values were obtained:
Test in all cases: DTP human tumour cell line panel, 48 h
786-0 = tested on: 786-0
COLO 205 = tested on: COLO 205
HCC 2998 = tested on: HCC 2998
HCT-116 = tested on: HCT-116
HOP-62 = tested on: HOP-62
MDA-MB-231 = tested on: MDA-MB-231
NCI-H226 = tested on: NCI-H226
NCI-H460 = tested on: NCI-H460
OVCAR-3 = tested on: OVCAR-3
OVCAR-4 = tested on: OVCAR-4
OVCAR-5 = tested on: OVCAR-5
PC-3 = tested on: PC-3
SF-295 = tested on: SF-295
SK-OV-3 = tested on: SK-OV-3
SR = tested on: SR
SW-620 = tested on: SW-620
TK-10 = tested on: TK-10
U-251 = tested on: U-251
UACC-257 = tested on: UACC-257

Measured: GI50

Oc1[nH]c(Nc2ccc(Cl)cc2)nc2ncnc1-2
inactive: 786-0 > 100 µM | COLO 205 > 100 µM | HCC 2998 98.6 µM | HCT-116 84.3 µM | HOP-62 > 100 µM | MDA-MB-231 88.3 µM | NCI-H226 > 100 µM | NCI-H460 > 100 µM | OVCAR-3 > 100 µM | OVCAR-4 64.7 µM | OVCAR-5 > 100 µM | PC-3 > 100 µM | SF-295 > 100 µM | SK-OV-3 > 100 µM | SR 44.9 µM | SW-620 > 100 µM | TK-10 > 100 µM | U-251 > 100 µM | UACC-257 > 100 µM

CC1OC(OC2C(O)C(O)C(O)C(O)C2O)C(N)CC1NC(=N)C(=O)O (stereo not given)
inactive: 786-0 > 100 µM | COLO 205 > 100 µM | HCC 2998 > 100 µM | HCT-116 > 100 µM | HOP-62 > 100 µM | MDA-MB-231 > 100 µM | NCI-H226 > 100 µM | NCI-H460 > 100 µM | OVCAR-3 > 100 µM | OVCAR-4 > 100 µM | OVCAR-5 > 100 µM | PC-3 > 100 µM | SF-295 > 100 µM | SK-OV-3 > 100 µM | SR > 100 µM | SW-620 > 100 µM | TK-10 > 100 µM | U-251 > 100 µM | UACC-257 > 100 µM

N=C(N)/N=C(\N)Nc1ccc(C(=O)O)cc1
inactive: 786-0 > 100 µM | COLO 205 > 100 µM | HCC 2998 > 100 µM | HCT-116 > 100 µM | HOP-62 > 100 µM | MDA-MB-231 > 100 µM | NCI-H226 > 100 µM | NCI-H460 > 100 µM | OVCAR-3 > 100 µM | OVCAR-4 > 100 µM | OVCAR-5 > 100 µM | PC-3 > 100 µM | SF-295 > 100 µM | SK-OV-3 > 100 µM | SR > 100 µM | SW-620 > 100 µM | TK-10 > 100 µM | U-251 > 100 µM | UACC-257 > 100 µM

C=C([C@@]1(O)C[C@H]2[C@H](CCC2(OC)OC)[C@@H]2c3ccccc3O[C@@H]21)[Si](C)(C)C
inactive: 786-0 > 100 µM | COLO 205 > 100 µM | HCC 2998 > 100 µM | HCT-116 > 100 µM | HOP-62 > 100 µM | MDA-MB-231 > 100 µM | NCI-H226 > 100 µM | NCI-H460 > 100 µM | OVCAR-3 > 100 µM | OVCAR-4 > 100 µM | OVCAR-5 > 100 µM | PC-3 > 100 µM | SF-295 > 100 µM | SK-OV-3 > 100 µM | SR 31.9 µM | SW-620 > 100 µM | TK-10 > 100 µM | U-251 > 100 µM | UACC-257 > 100 µM

Cc1sc2nc3n(c(=O)c2c1C)N=C(c1ccccc1)CS3
inactive: 786-0 47.5 µM | COLO 205 > 100 µM | HCC 2998 > 100 µM | HCT-116 > 100 µM | HOP-62 48.3 µM | MDA-MB-231 > 100 µM | NCI-H226 > 100 µM | NCI-H460 > 100 µM | OVCAR-3 > 100 µM | OVCAR-4 > 100 µM | OVCAR-5 > 100 µM | PC-3 > 100 µM | SF-295 45.4 µM | SK-OV-3 > 100 µM | SR > 100 µM | SW-620 > 100 µM | TK-10 > 100 µM | U-251 > 100 µM | UACC-257 > 100 µM

O=[N+]([O-])c1ccc(C2ON=C(c3ccccc3)N2C23CC4CC(CC(C4)C2)C3)cc1 (stereo not given)
inactive: 786-0 > 10 µM | COLO 205 > 10 µM | HCC 2998 > 10 µM | HCT-116 > 10 µM | HOP-62 > 10 µM | MDA-MB-231 > 10 µM | NCI-H226 > 10 µM | NCI-H460 > 10 µM | OVCAR-3 > 10 µM | OVCAR-4 > 10 µM | OVCAR-5 > 10 µM | PC-3 > 10 µM | SF-295 > 10 µM | SK-OV-3 > 10 µM | SR > 10 µM | SW-620 > 10 µM | TK-10 > 10 µM | U-251 6.35 µM | UACC-257 > 10 µM

O=S1(=O)c2ccccc2C(=NO)c2ccccc21
inactive: 786-0 > 100 µM | COLO 205 > 100 µM | HCC 2998 > 100 µM | HCT-116 > 100 µM | HOP-62 > 100 µM | MDA-MB-231 > 100 µM | NCI-H226 > 100 µM | NCI-H460 > 100 µM | OVCAR-3 39.7 µM | OVCAR-4 > 100 µM | OVCAR-5 > 100 µM | PC-3 43.4 µM | SF-295 > 100 µM | SK-OV-3 > 100 µM | SR 29.8 µM | SW-620 > 100 µM | TK-10 > 100 µM | U-251 > 100 µM | UACC-257 > 100 µM

OCC1CCCCN1Cc1nc2cc(Cl)ccc2[nH]1 (stereo not given)
inactive: 786-0 > 100 µM | COLO 205 > 100 µM | HCC 2998 > 100 µM | HCT-116 > 100 µM | HOP-62 > 100 µM | MDA-MB-231 > 100 µM | NCI-H226 95.5 µM | NCI-H460 > 100 µM | OVCAR-3 > 100 µM | OVCAR-4 > 100 µM | OVCAR-5 > 100 µM | PC-3 55.2 µM | SF-295 > 100 µM | SK-OV-3 > 100 µM | SR > 100 µM | SW-620 > 100 µM | TK-10 > 100 µM | U-251 > 100 µM | UACC-257 > 100 µM

COC(=O)[C@]1(CCC(C)=O)C(=O)C=CN([C@H](C)c2ccccc2)[C@@H]1Cc1ccc(OC)c(OCc2ccccc2)c1I
inactive: 786-0 17.8 µM | COLO 205 17.9 µM | HCC 2998 14.2 µM | HCT-116 14 µM | HOP-62 22.8 µM | MDA-MB-231 15.8 µM | NCI-H226 15.7 µM | NCI-H460 15.9 µM | OVCAR-3 16.8 µM | OVCAR-4 19.3 µM | OVCAR-5 22.7 µM | PC-3 16.6 µM | SF-295 17.7 µM | SK-OV-3 35.4 µM | SR 15.7 µM | SW-620 32.9 µM | TK-10 21.5 µM | U-251 17.3 µM | UACC-257 16.7 µM

COC(=O)c1cc(=O)n(-c2ccc3nn(C)nc3c2)cc1C(=O)OC
inactive: 786-0 > 100 µM | COLO 205 > 100 µM | HCC 2998 > 100 µM | HCT-116 > 100 µM | HOP-62 > 100 µM | MDA-MB-231 > 100 µM | NCI-H226 > 100 µM | NCI-H460 > 100 µM | OVCAR-3 > 100 µM | OVCAR-4 > 100 µM | OVCAR-5 > 100 µM | PC-3 > 100 µM | SF-295 > 100 µM | SK-OV-3 > 100 µM | SR > 100 µM | SW-620 > 100 µM | TK-10 > 100 µM | U-251 > 100 µM | UACC-257 > 100 µM
